From ChEMBL document CHEMBL3784995, “Inhibitors of HIV-1 maturation: Development of structure-activity relationship for C-28 amides based on C-3 benzoic acid-modified triterpenoids” (Bioorg Med Chem Lett, 2016) come the findings set out here.

Bounds are passed on as bounds.

The nature of data set [1]: Cytotoxicity against human MT2 cells. Type of data set: cell-based.
Data set [2] concerns Human immunodeficiency virus 1. The data set can be described thus: Antiviral activity against wild type HIV1 NL4-3 habouring Gag protein V370A mutant infected in human MT2 cells after 4 to 5 days by dual-luciferase reporter gene assay. The format is functional, organism-based. The settings on record: Human immunodeficiency virus 1, NL4-3, MT2. (In general: A reporter such as luciferase makes a cellular process visible.)

The subject of data set [3] is Human immunodeficiency virus 1. The data set can be described thus: Antiviral activity against wild type HIV1 NL4-3 infected in human MT2 cells after 4 to 5 days by dual-luciferase reporter gene assay. The format is functional, organism-based. To be noted: Human immunodeficiency virus 1, NL4-3, MT2.
Data set [4] concerns Human immunodeficiency virus 1. The data set can be described thus: Antiviral activity against wild type HIV1 NL4-3 habouring Gag protein delta V370 infected in human MT2 cells after 4 to 5 days by dual-luciferase reporter gene assay. Type of data set: functional, organism-based. To be noted: Human immunodeficiency virus 1, NL4-3, MT2.

One may read the CC50 as the concentration at which the toxic effect on the cells reaches its halfway point. Lower therefore signals harm at low concentration. Broadly, the EC50 is the concentration giving half of the maximal effect. Lower therefore signals higher potency in that assay. In data set [1], `C=C(C)[C@@H]1CC[C@]2(C(=O)NCCN)CC[C@]3(C)[C@H](CC[C@@H]4[C@@]5(C)CC=C(c6ccc(C(=O)O)cc6)C(C)(C)[C@@H]5CC[C@]43C)[C@@H]12` came in with a half-maximal cytotoxic concentration (CC50) of 4000 nM. The figures for the EC50 in data set [2], in data set [3] and in data set [4] were 7 nM, 3 nM and 702 nM, respectively.

Take `C=C(C)[C@@H]1CC[C@]2(C(=O)N[C@@H](CN(C)C)C(=O)O)CC[C@]3(C)[C@H](CC[C@@H]4[C@@]5(C)CC=C(c6ccc(C(=O)O)cc6)C(C)(C)[C@@H]5CC[C@]43C)[C@@H]12`: the CC50 in data set [1] stood at 25000 nM. Besides, the half-maximal effective concentration (EC50) in data set [2] was 772 nM; in data set [3] it was 46 nM; in data set [4], greater than 160 nM.

In turn, `C=C(C)[C@@H]1CC[C@]2(C(=O)NCCNCC(=O)O)CC[C@]3(C)[C@H](CC[C@@H]4[C@@]5(C)CC=C(c6ccc(C(=O)O)cc6)C(C)(C)[C@@H]5CC[C@]43C)[C@@H]12` had a CC50 in data set [1] greater than 2000 nM. The EC50 worked out at 15 nM in data set [2], 42 nM in data set [3] and 61 nM in data set [4].

As to `C=C(C)[C@@H]1CC[C@]2(C(=O)NCCN(CC)CCC(=O)O)CC[C@]3(C)[C@H](CC[C@@H]4[C@@]5(C)CC=C(c6ccc(C(=O)O)cc6)C(C)(C)[C@@H]5CC[C@]43C)[C@@H]12`, the half-maximal cytotoxic concentration (CC50) in data set [1] is greater than 17000 nM. Also, the 50% effective concentration (EC50) in data set [2] came to 6 nM; in data set [3], 2 nM; in data set [4] it was 119 nM.

For the compound `C=C(C)[C@@H]1CC[C@]2(C(=O)NCCN(C)C(C)=O)CC[C@]3(C)[C@H](CC[C@@H]4[C@@]5(C)CC=C(c6ccc(C(=O)O)cc6)C(C)(C)[C@@H]5CC[C@]43C)[C@@H]12`, the midpoint of cytotoxicity in data set [1], the CC50, lay at 9000 nM. The figures for the concentration giving a half-maximal response (EC50) in data set [2], in data set [3] and in data set [4] were 2 nM, 3 nM and 224 nM, respectively.

Turning to `C=C(C)[C@@H]1CC[C@]2(C(=O)NCCN3CCCCC3)CC[C@]3(C)[C@H](CC[C@@H]4[C@@]5(C)CC=C(c6ccc(C(=O)O)cc6)C(C)(C)[C@@H]5CC[C@]43C)[C@@H]12`, the CC50 in data set [1] stood at 10000 nM. The values for the 50% effective concentration (EC50) in data set [2], in data set [3] and in data set [4] were 10 nM, 7 nM and 359 nM, respectively.

Take `C=C(C)[C@@H]1CC[C@]2(C(=O)NCCN(C)CC(=O)O)CC[C@]3(C)[C@H](CC[C@@H]4[C@@]5(C)CC=C(c6ccc(C(=O)O)cc6)C(C)(C)[C@@H]5CC[C@]43C)[C@@H]12`: half-maximal cytotoxicity in data set [1] (CC50) was put at 200 nM. Further, the EC50 came to 51 nM in data set [2], 10 nM in data set [3] and 160 nM in data set [4].

`C=C(C)[C@@H]1CC[C@]2(C(=O)NCC(N)=O)CC[C@]3(C)[C@H](CC[C@@H]4[C@@]5(C)CC=C(c6ccc(C(=O)O)cc6)C(C)(C)[C@@H]5CC[C@]43C)[C@@H]12` yielded a 50% cytotoxic concentration (CC50) in data set [1] of 9000 nM. Besides, the concentration giving a half-maximal response (EC50) was determined as 32 nM in data set [2], 6 nM in data set [3] and 2000 nM in data set [4].

Take `C=C(C)[C@@H]1CC[C@]2(C(=O)NCC(C)(C)N)CC[C@]3(C)[C@H](CC[C@@H]4[C@@]5(C)CC=C(c6ccc(C(=O)O)cc6)C(C)(C)[C@@H]5CC[C@]43C)[C@@H]12`: half-maximal cytotoxicity in data set [1] (CC50) was put at 20000 nM. The figures for the EC50 in data set [2], in data set [3] and in data set [4] were 21 nM, 7 nM and 800 nM, respectively.

For `C=C(C)[C@@H]1CC[C@]2(C(=O)NCCOC)CC[C@]3(C)[C@H](CC[C@@H]4[C@@]5(C)CC=C(c6ccc(C(=O)O)cc6)C(C)(C)[C@@H]5CC[C@]43C)[C@@H]12`, half-maximal cytotoxicity in data set [1] (CC50) was put at 14000 nM. Also, the half-maximal effective concentration (EC50) amounted to 152 nM in data set [2] and 17 nM in data set [3].

In data set [1], `C=C(C)[C@@H]1CC[C@]2(C(=O)NCCN(CC(=O)O)CC(=O)O)CC[C@]3(C)[C@H](CC[C@@H]4[C@@]5(C)CC=C(c6ccc(C(=O)O)cc6)C(C)(C)[C@@H]5CC[C@]43C)[C@@H]12` registered a CC50 greater than 20000 nM. Further, the EC50 in data set [2], in data set [3] and in data set [4] was greater than 2000 nM in each case.
